Results reported in patent US20260053812A1, “METHODS OF TREATING HYPERTENSION WITH A COMBINATION OF AN ALDOSTERONE SYNTHASE INHIBITOR AND A DIURETIC” (Mineralys Therapeutics, Inc., priority 2022, published 2026).

Assay: Adverse events (TEAEs, SAEs, AESI; Safety Analysis Set)
Description: In analyses performed on the Safety Analysis Set, subjects will be analyzed according to their actual treatment received.

## CC(=O)N[C@H]1CC[C@H](NC(=O)CN2CCN(c3nncc(-c4ccc(C)cc4)n3)CC2)CC1 [Compound A HBr]
Part 1, 12.5 mg QD (N = 23)
  On-treatment TEAE, Vascular disorders, Mild, %: (8.7) %
  On-treatment TEAE, Vascular disorders, Moderate, %: (4.3) %
  Subjects with any On-treatment TEAEs leading to withdrawal from study drug, %: (17.4) %
  Subjects with any On-treatment TEAEs, Mild, %: (52.2) %
  Subjects with any On-treatment TEAEs, Moderate, %: (13.0) %
  Subjects with any On-treatment TEAEs, Severe, %: (4.3) %
  TEAE leading to permanent discontinuation from study drug, Cardiac disorders, %: (4.3) %
  TEAE leading to permanent discontinuation from study drug, Coronary artery disease, %: (4.3) %
  TEAE leading to permanent discontinuation from study drug, Dizziness, %: (4.3) %
  TEAE leading to permanent discontinuation from study drug, Hyperkalaemia, %: (8.7) %
  TEAE leading to permanent discontinuation from study drug, Metabolism and nutrition disorders, %: (8.7) %
  TEAE leading to permanent discontinuation from study drug, Nervous system disorders, %: (4.3) %
Part 1, 25 mg BID (N = 30)
  On-treatment TEAE, Blood and lymphatic system disorders, %: (6.7) %
  On-treatment TEAE, Blood and lymphatic system disorders, Mild, %: (6.7) %
  On-treatment TEAE, Cortisol decreased, %: (3.3) %
  On-treatment TEAE, Cortisol decreased, Mild, %: (3.3) %
  On-treatment TEAE, Gastrointestinal disorders, %: (3.3) %
  On-treatment TEAE, Gastrointestinal disorders, Mild, %: (3.3) %
  On-treatment TEAE, Headache, %: (6.7) %
  On-treatment TEAE, Headache, Mild, %: (6.7) %
  On-treatment TEAE, Hyperkalaemia, %: (30.0) %
  On-treatment TEAE, Hyperkalaemia, Mild, %: (23.3) %
  On-treatment TEAE, Hyperkalaemia, Moderate, %: (6.7) %
  On-treatment TEAE, Hypertension, %: (3.3) %
  On-treatment TEAE, Infections and infestations, %: (10.0) %
  On-treatment TEAE, Infections and infestations, Mild, %: (6.7) %
  On-treatment TEAE, Infections and infestations, Moderate, %: (3.3) %
  On-treatment TEAE, Investigations, %: (10.0) %
  On-treatment TEAE, Investigations, Mild, %: (6.7) %
  On-treatment TEAE, Investigations, Moderate, %: (3.3) %
  On-treatment TEAE, Metabolism and nutrition disorders, %: (33.3) %
  On-treatment TEAE, Metabolism and nutrition disorders, Mild, %: (26.7) %
  On-treatment TEAE, Metabolism and nutrition disorders, Moderate, %: (6.7) %
  On-treatment TEAE, Nervous system disorders, %: (10.0) %
  On-treatment TEAE, Nervous system disorders, Mild, %: (6.7) %
  On-treatment TEAE, Urinary tract infection, %: (10.0) %
  On-treatment TEAE, Urinary tract infection, Mild, %: (6.7) %
  On-treatment TEAE, Vascular disorders, %: (3.3) %
  On-treatment TEAE, Vascular disorders, Mild, %: (3.3) %
  Subjects with any On-treatment TEAEs leading to withdrawal from study drug, %: 3.3%
  Subjects with any On-treatment TEAEs, Mild, %: (46.7) %
  Subjects with any On-treatment TEAEs, Moderate, %: (13.3) %
  TEAE leading to permanent discontinuation from study drug, Hyperkalaemia, %: 3.3%
  TEAE leading to permanent discontinuation from study drug, Hypertension, %: 3.3%
  TEAE leading to permanent discontinuation from study drug, Metabolism and nutrition disorders, %: 3.3%
  TEAE leading to permanent discontinuation from study drug, Vascular disorders, %: 3.3%
Part 1, 50 mg QD (N = 28)
  On-treatment TEAE, Cardiac disorders, %: (3.6) %
  On-treatment TEAE, Dizziness, %: (7.1) %
  On-treatment TEAE, Gastrointestinal disorders, %: (3.6) %
  On-treatment TEAE, Gastrointestinal disorders, Mild, %: (3.6) %
  On-treatment TEAE, General disorders and administration site conditions, %: (7.1) %
  On-treatment TEAE, General disorders and administration site conditions, Mild, %: (3.6) %
  On-treatment TEAE, Headache, %: (3.6) %
  On-treatment TEAE, Headache, Mild, %: (3.6) %
  On-treatment TEAE, Hyperkalaemia, %: (10.7) %
  On-treatment TEAE, Hyperkalaemia, Mild, %: (10.7) %
  On-treatment TEAE, Hypertension, %: (7.1) %
  On-treatment TEAE, Hypertension, Moderate, %: (7.1) %
  On-treatment TEAE, Infections and infestations, %: (7.1) %
  On-treatment TEAE, Infections and infestations, Moderate, %: (7.1) %
  On-treatment TEAE, Investigations, %: (3.6) %
  On-treatment TEAE, Investigations, Mild, %: (3.6) %
  On-treatment TEAE, Metabolism and nutrition disorders, %: (17.9) %
  On-treatment TEAE, Metabolism and nutrition disorders, Mild, %: (17.9) %
  On-treatment TEAE, Nervous system disorders, %: (7.1) %
  On-treatment TEAE, Nervous system disorders, Mild, %: (3.6) %
  On-treatment TEAE, Urinary tract infection, %: (7.1) %
  On-treatment TEAE, Urinary tract infection, Mild, %: (3.6) %
  On-treatment TEAE, Vascular disorders, %: (7.1) %
  On-treatment TEAE, Vascular disorders, Moderate, %: (7.1) %
  Subjects with any On-treatment TEAEs, Mild, %: (14.3) %
  Subjects with any On-treatment TEAEs, Moderate, %: (21.4) %
Part 1, 100 mg QD (N = 30)
  On-treatment TEAE, Blood creatinine increased, %: (10.0) %
  On-treatment TEAE, Blood creatinine increased, Mild, %: (10.0) %
  On-treatment TEAE, Gastrointestinal disorders, %: (6.7) %
  On-treatment TEAE, Gastrointestinal disorders, Mild, %: (6.7) %
  On-treatment TEAE, Glomerular filtration rate decreased, %: (16.7) %
  On-treatment TEAE, Glomerular filtration rate decreased, Mild, %: (13.3) %
  On-treatment TEAE, Hyperkalaemia, %: (26.7) %
